SMILES | glass transition temperature
*CCCc1ccc(-c2c(-c3ccccc3)cc(-c3ccc(-c4cc(-c5ccccc5)c(-c5ccc(*)cc5)c(-c5ccccc5)c4-c4ccccc4)cc3)c(-c3ccccc3)c2-c2ccccc2)cc1 (repeat unit) | 290.00 °C
*CCCC(=O)O* (repeat unit) | 1.50 °C
*/C=C/c1ccc(/N=N/c2ccc(N(C)CCOC(=O)Nc3ccc(C)c(NC(=O)OCCN(C)c4ccc(/N=N/c5ccc(/C=C/C6=CC(=C(C#N)C#N)C=C(*)O6)cc5)cc4)c3)cc2)cc1 (repeat unit) | 196.00 °C
*C1C=CC(*)CC1 (repeat unit) | 125.50 °C
*Oc1ccc(NC(=O)CCCCCCCCCC(=O)Nc2ccc(*)cc2)cc1 (repeat unit) | 150.00 °C
*CCC1CC(=O)N(*)C1=O (repeat unit) | 131.00 °C
*/C(CC)=C(/*)c1ccccc1 (repeat unit) | 200.00 °C
*Nc1cccc2c(NC(=O)c3cccc(C(*)=O)c3)cccc12 (repeat unit) | 325.00 °C
*CCCCOC(=O)Nc1ccc(C)c(NC(=O)O*)c1 (repeat unit) | 42.00 °C
*c1ccc(NC(=O)Nc2ccc(NC(=O)Nc3ccc(-c4nc(-c5ccc([N+](=O)[O-])cc5)[nH]c4*)cc3)cc2)cc1 (repeat unit) | 292.00 °C
*CC(*)CCCCCCCCCI (repeat unit) | -6.00 °C
*CCOCCOP(=O)(/N=N/c1ccc(C(=O)c2ccc(/N=N/P(=O)(O*)OC)cc2)cc1)OC (repeat unit) | 33.00 °C
*Oc1ccc(CC(NC(=O)CCc2ccc(OC(=O)COCC(*)=O)cc2)C(=O)OC(C)C)cc1 (repeat unit) | 80.00 °C
*c1ccc(-c2ccc(-c3ccc(-c4ccc(-c5cc(-c6ccccc6)c6cc(Oc7ccc8nc(*)cc(-c9ccccc9)c8c7)ccc6n5)cc4)cc3)cc2)cc1 (repeat unit) | 310.00 °C
*c1ccc(-c2cc(CCCCCCOC(=O)COc3ccccc3)c(*)s2)s1 (repeat unit) | 79.00 °C
*CCCCCCCCOC(=O)Nc1ccc(C)c(NC(=O)O*)c1 (repeat unit) | 64.00 °C
*C1C(=O)N(c2ccc(O[Si](C)(C)C)cc2)C(=O)C1* (repeat unit) | 172.00 °C
*NC1CC(C)(C)CC(C)(CNC(=O)CCCCC(*)=O)C1 (repeat unit) | 150.80 °C
*CC(*)C(=O)c1ccc(Br)c(OC)c1 (repeat unit) | 44.00 °C
*CCCCCCCCCCNC(=O)NCc1ccc(CNC(=O)N*)cc1 (repeat unit) | 55.00 °C
*CC(CC)(CO)CO* (repeat unit) | 331.90 °C

SMILES | glass transition temperature
*OC(C)COC(=O)c1ccccc1C(*)=O (repeat unit) | 95.00 °C
*/C=C/C1CC(*)C2C(=O)N(CCCCCCCCCCCC)C(=O)C12 (repeat unit) | 50.00 °C
*CCCCOC(=O)NCC(F)(F)C(F)(F)C(F)(F)C(F)(F)CNC(=O)O* (repeat unit) | 33.00 °C
*c1ccc(NC(=O)CCCCCCCCCCC(=O)Nc2ccc(S(*)(=O)=O)cc2)cc1 (repeat unit) | 160.00 °C
*CCCCCCNC(=O)CC(C)(C)c1ccc(C(C)(C)CC(=O)N*)cc1 (repeat unit) | 91.00 °C
*CCCCCCOC(=O)OCCCOC(=O)OCCCCCCN1C(=O)c2ccc(C(=O)c3ccc4c(c3)C(=O)N(*)C4=O)cc2C1=O (repeat unit) | 61.00 °C
*CC(O)CN(*)c1cc(C)c(/N=N/c2ccc(C#N)cc2)c(C)c1 (repeat unit) | 150.00 °C
*CNC(=O)CCCCC(=O)NCC1COC(*)CO1 (repeat unit) | 93.00 °C
*CC(*)(CC(=O)OCCCc1ccccc1)C(=O)OCCCc1ccccc1 (repeat unit) | -8.00 °C
*CCCCCCCCCCOC(=O)c1ccc2cc(C(=O)O*)ccc2c1 (repeat unit) | 50.50 °C
*CCCCCCCCCCOC(=O)CCCCCNC(=O)CCCCC(=O)NCCCCCC(=O)O* (repeat unit) | -12.00 °C
*=NP(=NP(=NC(=*)Oc1ccccc1)(Oc1ccccc1)Oc1ccccc1)(Oc1ccccc1)Oc1ccccc1 (repeat unit) | 18.00 °C
*CC(*)C(=O)OCCSCCC#N (repeat unit) | -50.00 °C
*c1cccc(P(=O)(c2cccc(-n3c(=O)c4c(-c5cc(C(F)(F)F)cc(C(F)(F)F)c5)c5c(=O)n(*)c(=O)c5c(-c5cc(C(F)(F)F)cc(C(F)(F)F)c5)c4c3=O)c2)c2cc(C(F)(F)F)cc(C(F)(F)F)c2)c1 (repeat unit) | 293.00 °C
*CC(*)(F)C(=O)OCC(F)(F)F (repeat unit) | 124.00 °C
*CC(*)OC(=O)CC1CCCC1 (repeat unit) | -3.00 °C
*Nc1ccc(C(C)(C)c2ccc(NC(=O)c3cccc(C(*)=O)c3)cc2)cc1 (repeat unit) | 279.00 °C
*CC(*)c1ccc(C(=O)CCN2CCOCC2)cc1 (repeat unit) | 41.00 °C
*COc1ccc(C(=O)OC(=O)c2ccc(O*)cc2)cc1 (repeat unit) | 84.00 °C
*CC(*)(C)C(=O)NC(=O)OC(C)COc1c(Br)cc(S(=O)(=O)c2cc(Br)c(OCC(C)O)c(Br)c2)cc1Br (repeat unit) | 45.00 °C

Continued, values first:

glass transition temperature | SMILES
166.00 °C | *CCCCCCOc1ccc(NC(=O)c2cc(C(=O)Nc3ccc(O*)cc3)cc(C(C)(C)C)c2)cc1 (repeat unit)
369.50 °C | *Oc1cccc(Oc2ccc3c(=O)n4c5cc(Oc6ccc7c(c6)nc6c8ccc(*)c9cccc(c(=O)n76)c98)ccc5nc4c4cccc2c34)c1 (repeat unit)
227.00 °C | *Oc1ccc2ccc(Oc3ccc(C(=O)Nc4ccc(Oc5ccc(S(=O)(=O)c6ccc(Oc7ccc(NC(=O)c8ccc(*)cc8)cc7)cc6)cc5)cc4)cc3)cc2c1 (repeat unit)
185.00 °C | *Oc1ccc(C2(c3ccc(Oc4ccc(C(=O)c5cccc(C(=O)c6ccc(*)cc6)c5)cc4)c(C)c3)CCC3CCCCC3C2)cc1C (repeat unit)
287.00 °C | *Oc1ccc(C2(c3ccc(OC(=O)c4cccc(C(*)=O)c4)c(C)c3)c3ccccc3-c3ccccc32)cc1C (repeat unit)
320.00 °C | *c1ccc(Oc2ccc(-c3cc(-c4ccccc4)c4cc(C5(c6ccc7nc(*)cc(-c8ccccc8)c7c6)c6ccccc6C(=O)c6ccccc65)ccc4n3)cc2)cc1 (repeat unit)
227.00 °C | *c1ccc(Oc2ccc(C(c3ccc(Oc4ccc(N5C(=O)c6ccc(Oc7ccc(C8(c9ccc(Oc%10ccc%11c(c%10)C(=O)N(*)C%11=O)cc9)CCC(C(C)(C)C)CC8)cc7)cc6C5=O)cc4)cc3)(C(F)(F)F)C(F)(F)F)cc2)cc1 (repeat unit)
334.00 °C | *c1ccc(Oc2ccc(-c3ccc(-c4ccc(-c5ccc(Oc6ccc(-c7c8c(c(*)c9ccccc79)C(=O)N(c7ccccc7)C8=O)cc6)c(C(F)(F)F)c5)cc4)cc3)cc2C(F)(F)F)cc1 (repeat unit)
380.00 °C | *c1ccc(C2(c3ccc(-c4nnc(*)o4)cc3)OC(=O)c3ccccc32)cc1 (repeat unit)
266.50 °C | *C(=O)c1cc(C(=O)c2ccc3c(c2)C(=O)N(c2cccc(N4C(=O)c5ccc(*)cc5C4=O)c2)C3=O)cc(-c2ccccc2)c1 (repeat unit)
324.60 °C | *c1ccc(Oc2ccc(C(=O)c3cccc(C(=O)c4ccc(Oc5ccc(-n6c(=O)c7cc8c(=O)n(*)c(=O)c8cc7c6=O)cc5)cc4)n3)cc2)cc1 (repeat unit)
283.00 °C | *c1ccc(Oc2ccc(C(=O)c3ccc(Oc4ccc(-c5c6c(c(*)c7ccccc57)C(=O)N(C)C6=O)cc4)cc3)cc2)cc1 (repeat unit)
38.00 °C | *CC(*)(C)C(=O)OCCCCCCOc1ccc(OC(=O)c2ccc(OC)cc2)cc1 (repeat unit)
269.00 °C | *Oc1ccc(C2(c3ccc(Oc4ccc(C(=O)c5cccc6cccc(C(=O)c7ccc(*)cc7)c56)cc4)cc3)c3ccccc3-c3ccccc32)cc1 (repeat unit)
231.00 °C | *CN1C(=O)c2ccc(C(c3ccc4c(c3)C(=O)N(Cc3nc5cc(-c6ccc7oc(*)nc7c6)ccc5o3)C4=O)(C(F)(F)F)C(F)(F)F)cc2C1=O (repeat unit)
327.00 °C | *C(=O)Oc1c(C)cc(C(c2cc(C)c(OC(=O)c3ccc4c(c3)C(=O)N(c3c(C)cc(-c5cc(C)c(N6C(=O)c7ccc(*)cc7C6=O)c(C)c5)cc3C)C4=O)c(C)c2)(C(F)(F)F)C(F)(F)F)cc1C (repeat unit)
69.00 °C | *CC(*)(C)C(=O)OCCCCCCCCOc1ccc(C(=O)Oc2ccc(C(=O)/C=C/c3c(C)c4ccccc4n3CCCC)cc2)cc1 (repeat unit)
219.00 °C | *Oc1ccc(C2(c3ccc(OC(*)=O)cc3)CCc3ccccc32)cc1 (repeat unit)
272.20 °C | *c1ccc(Oc2ccc(Oc3ccc(-n4c(=O)c5cc6c(=O)n(*)c(=O)c6cc5c4=O)cc3)cc2)c(C(F)(F)F)c1 (repeat unit)
352.00 °C | *c1ccc2c(c1)C(=O)N(c1ccc(-c3ccc(N4C(=O)c5ccc(C(*)(C(F)(F)F)C(F)(F)F)cc5C4=O)c(C)c3)cc1C)C2=O (repeat unit)
163.00 °C | *Oc1ccc2ccc(Oc3ccc(C(=O)Nc4ccc(Oc5ccc(C(c6ccc(Oc7ccc(NC(=O)c8ccc(*)cc8)cc7)cc6)(C(F)(F)F)C(F)(F)F)cc5)cc4)cc3)cc2c1 (repeat unit)
235.00 °C | *C(=O)c1ccc2c(c1)C(=O)N(c1cccc(C(O[Si](C)(C)O[Si](C)(C)O[Si](C)(C)C)c3cccc(N4C(=O)c5ccc(*)cc5C4=O)c3)c1)C2=O (repeat unit)
165.00 °C | *c1ccc([Si](c2ccccc2)(c2ccccc2)c2ccc(-c3ccc4c(c3)c3cc(*)ccc3n4CCCCCC#N)cc2)cc1 (repeat unit)

From the PolyMetriX glass transition set
